Consider four molecules from US20080261862A1, “Materials and Methods for Modulating Signalling by Alpha-V Integring Molecules” (priority 2004, published 2008).

The subject of experiment [1] is SMS-SB cells. In words: Proliferation ([3H]-thymidine incorporation) of low cell density SMS-SB cultures. Format: cell-based, human. The note with it: 72 hr; for growth / thymidine incorporation of SMS-SB cells: LCD cultures, 2500 cells/well. The procedure: For stimulation experiments, SMS-SB cells were cultured at 2500 cells/100 μl culture (low cell density, LCD) a seeding density at which the cells are prone to apoptose^15. NALM-6 cells were washed extensively in PFHM prior to culture at 2, 500 cells/100 μl culture. Cultures were propagated, in the presence or absence of cytokines, MAbs or peptides, at 37° C. for 72 hours followed by addition of 0.3 μCi/well tritiated thymidine ([^3H]-TdR) for 18 hours prior to harvest; incorporation was determined by liquid scintillation spectrometry. Apoptosis was determined by staining harvested cells with propidium iodide (PI) and Hoechst 33342 for 1 minute prior to analysis on a Coulter Elite flow cytometer as previously described^15. For stromal cell/SMS-SB co-cultures, 6000 stromal cells were seeded into individual wells of a 96-well tray and allowed to adhere for 24 hr; anti-CD23 MAb or isotype matched control and SMS-SB cells were added to the wells to give a total culture volume of 100 μl. SMS-SB cells were added at 5, 25 or 50 cells per well and cultures were allowed to expand over a 2-4 week period.

Experiment [2] concerns SMS-SB cells. In words: Flow cytometry binding of biotinylated peptides to SMS-SB cells. Format: cell-based, human. The source says:
FIG. 3C:—Binding of biotinylated peptides to pre-B cell lines was detected by addition of PE-streptavidin and flow cytometry; mean fluorescence index (MFI) data were derived using CellQuest software. The flow cytometric plots for binding of peptides #9 (black line), #11 (grey line) and #57 (shaded area) are illustrated (Panel i), and MFI data for binding of the noted peptides to SMS-SB (Panel ii), Blin-1 (Panel iii) and Nalm-6 (Panel iv) are shown. The unique nine amino acid sequence of each biotinylated tridecapeptide is shown with the RKC motif shared by αvβ5 binding peptides shown in bold (Panel ii).
Binding of peptides to cells was visualised by treating cells exposed to biotinylated peptides with fluorochrome-conjugated streptavidin and scoring binding by flow cytometry; mean fluorescence intensity data were obtained using the CellQuest programme. In culture experiments, peptides were used in the 10 nM to […] concentration range and appropriate solvent vehicle controls (e.g., acetonitrile, DMSO) were always performed.
Background: A flow cytometer gives signals particle by particle.

“Also recorded” adds a separate entry of the source.

Take CKRQFNIWK [9-INV]: the “growth / thymidine incorporation of SMS-SB cells” value in the experiment with SMS-SB cells [1] is given as “reduces substantially, but does not ablate, its ability to elevate thymidine incorporation”. Besides, the “binding of biotinylated peptide to SMS-SB cells” value in the experiment on SMS-SB cells [2] (flow cytometry, MFI) is “does not reduce greatly binding”.

As for fibronectin [Fn], the “growth / thymidine incorporation of SMS-SB cells” value in the experiment on SMS-SB cells [1] was “neither Vn nor Fn sustain the growth of SMS-SB cells”.

For RGDS, the “effect of RGDS on SMS-SB growth / thymidine incorporation induced by peptides #9 and #12” value in the experiment on SMS-SB cells [1] (10 μg/ml RGDS) is “nor inhibits thymidine incorporation induced by peptides #9 and #12; also recorded: fails to block”. In addition, in the experiment on SMS-SB cells [2] (ten-fold excess / 10 μg/ml RGDS), the “effect of excess RGDS on peptide binding to SMS-SB cells” value was “neither impedes peptide binding to SMS-SB cells; also recorded: fails to block binding of peptide #9 to SMS-SB cells”.

B1: vitronectin (protein, UniProt P04004 20-478, looked up)
Vitronectin: DQESCKGRCTEGFNVDKKCQCDELCSYYQSCCTDYTAECKPQVTRGDVFTMPEDEYTVYDDGEEKNNATVHEQVGGPSLTSDLQAQSKGNPEQTPVLKPEEEAPAPEVGASKPEGIDSRPETLHPGRPQPPAEEELCSGKPFDAFTDLKNGSLFAFRGQYCYELDEKAVRPGYPKLIRDVWGIEGPIDAAFTRINCQGKTYLFKGSQYWRFEDGVLDPDYPRNISDGFDGIPDNVDAALALPAHSYSGRERVYFFKGKQYWEYQFQHQPSQEECEGSSLSAVFEHFAMMQRDSWEDIFELLFWGRTSAGTRQPQFISRDWHGVPGQVDAAMAGRIYISGMAPRPSLAKKQRFRHRNRKGYRSQRGHSRGRNQNSRRPSRATWLSLFSSEESNLGANNYDDYRMDWLVPATCEPIQSVFFFSGDKYYRVNLRTRRVDTVDPPYPRSIAQYWLGCPAPGHL
notes: extracellular matrix protein, RGD-containing αv ligand
As to B1, in the experiment with SMS-SB cells [1], the “growth / thymidine incorporation of SMS-SB cells” value is on record as “neither Vn nor Fn sustain the growth of SMS-SB cells”.
